Patent publication US20260015341A1, “PI3K INHIBITOR, PREPARATION METHOD THEREFOR, AND USE THEREOF” (HINOVA PHARMACEUTICALS INC., priority 2022, published 2026)

Legend:
Pharmacokinetics in rats = assay type: in vivo, SD rats; settings: rat; for AUC / half-life / clearance / Vd: male, SD, plasma; for Vd: read-out: VSS
Procedure: Experimental Example 4: The Pharmacokinetics of the Compound According to the Present Invention in Rats
(§1) 9 healthy adult male SD rats (three for each administration route of each compound) were fasted overnight (>12 h) before gavage, with free access to water; 4 hours after administration, rats could take food, and were administered via tail vein injection and gastric lavage, respectively. At different time points, intravenous blood sample was collected and anti-coagulated, wherein the anticoagulant was EDTA-K2 (the sample was placed in an ice bath after blood collection). The plasma was separated by centrifugation at 4° C. and 6000 g for 5 min, and stored at −70° C. for testing. The plasma concentration of compounds was determined by LC-MS/MS method.
(§2) The plasma concentration of compound at all time points was used to calculate the main pharmacokinetic parameters with Winnolin 8.3 non-compartmental model.
(§3) The area under the concentration-time curve AUCall value: calculated using the trapezoidal method; AUCinf=AUCall+Ct/ke, Ct is the plasma concentration at the last measurable time point, and ke is the elimination rate constant;
The elimination half life t1/2=0.693/ke;
(§4) The clearance rate CL=D/AUCinf (D is the administration dosage);
The volume of distribution at steady state Vss=CL×MRT, The mean retention time MRT=AUMC/AUC;

[1] = target: PI3Kα[WT]/[E542K]/[E545K]/[H1047R]/PI3Kβ/γ/δ; assay: PI3K enzyme activity assay (ADP-Glo); assay type: biochemical; settings: PI3K kinase reaction, isoform not given
Procedure: Experimental Example 1: PI3Kα[WT]/[E542K]/[E545K]/[H1047R]/PI3Kβ/γ/δ Enzyme Activity Assay
PI3Kα[WT], PI3Kα[E542K], PI3Kα[E545K], PI3Kα[H1047R], PI3Kβ, PI3Kγ and PI3Kδ kinase reaction was performed in 384-well plate (PerkinElmer, #6008280), with a reaction system of 4 μL. PI3Kα[WT] enzyme solution (Promega, #V1721) or PI3Kα[E542K] enzyme solution (CarnaBio, #11-413-20N) or PI3Kα[E545K] enzyme solution (CarnaBio, #11-414-20N) or PI3Kα[H1047R] enzyme solution (Promega, #V1741) or PI3Kβ enzyme solution (Promega, #V1751) or PI3Kγ enzyme solution (ThermoFisher, #PV4786) or PI3Kδ enzyme solution (ThermoFisher, #PV6451) were added to 384-well plate, and then gradiently diluted compounds were added (starting at a final concentration of 10 μM, 3-fold dilution, 10 doses), followed by adding PIP2: 3PS (Promega, #V1701) and ATP solution (Promega, #V915B) to the plate. After incubation at 25° C. for 1 h, ADP-Glo reagent buffer (Promega, #V9102) was added to each well. The plate was sealed and incubated at 25° C. for 40 min, and then 10 μL of ADP-Glo detection buffer (Promega, #V9102) was added to each well. After incubating at 25° C. for 40 min, the chemiluminescence value was read using an instrument.
The experimental results are shown in the ADP Glo IC50 column in Table 2.

[2] = Pharmacokinetics in beagle dogs; assay type: in vivo; settings: beagle dog; for AUC / half-life / clearance / Vd: male, plasma; for Vd: read-out: VSS
Procedure: Experimental Example 5: The Pharmacokinetics of the Compound According to the Present Invention in Beagle Dogs
as §1, with “beagle dogs” for “SD rats”, “forelimb venous” for “intravenous”, “3200” for “4° C. and 6000”, “10” for “5”
as §2, §3, §4
The volume of distribution at steady state Vss=CL×MRT. The mean retention time MRT=AUMC/AUC;

MCF-10A cells = assay: Inhibitory effects on the proliferation of MCF-10A cells (CCK8); assay type: cell-based; settings: Homo sapiens, 144 h, 6 days
Outline: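 MCF-10A cells seeded at 500 cells/well, cultured 24 h, then exposed to 9-point 3-fold dilutions from 10 μM final for 6 days at 37° C., 5% CO2. Viability by CCK8, 2–3 h, OD450 read; IC50 reported.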

T47D cells = assay: Inhibitory effects on the proliferation of T47D cells (CellTiter-Glo); assay type: cell-based; settings: Homo sapiens, 168 h, 7 days
Outline: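 T47D cells (1000/well, RPMI 1640 + 10% FBS) cultured 24 h, then exposed 7 days at 37 °C to 9 compound concentrations, 3-fold dilutions from 10 μM final. Viability by CellTiter-Glo luminescence; IC50 derived.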

[3] = iv (tail vein injection), 1 mg/kg
[4] = po, ig (intragastric), 10 mg/kg

Compound | AUC (Pharmacokinetics in rats; po, ig (intragastric), 3 mg/kg) [µg·h/mL] | half-life (Pharmacokinetics in rats; po, ig (intragastric), 3 mg/kg) [h] | AUC (Pharmacokinetics in rats; [3]) [µg·h/mL] | clearance (Pharmacokinetics in rats; [3]) [L/h/kg] | half-life (Pharmacokinetics in rats; [3]) [h] | Vd (Pharmacokinetics in rats; [3]) [L/kg] | F (Pharmacokinetics in rats; ig (intragastric), 3 mg/kg) [%] | IC50 [1] [µM] | F ([2]; ig (intragastric), 3 mg/kg) [%] | F ([2]; ig (intragastric), 10 mg/kg) [%] | AUC ([2]; po, ig (intragastric), 3 mg/kg) [µg·h/mL] | half-life ([2]; po, ig (intragastric), 3 mg/kg) [h] | AUC [2, 4] [µg·h/mL] | half-life [2, 4] [h] | AUC ([2]; iv, 1 mg/kg) [µg·h/mL] | clearance ([2]; iv, 1 mg/kg) [L/h/kg] | half-life ([2]; iv, 1 mg/kg) [h] | Vd ([2]; iv, 1 mg/kg) [L/kg] | IC50 (MCF-10A cells) [µM] | IC50 (T47D cells) [µM]
C[C@@H](Nc1ccc(Cl)nc1C(=O)O)c1cc(F)cc2c(=O)n(C)c(-c3ccc(F)cn3)nc12 [Compound 74] | 1.33 | 2.4 | 1.01 | 0.996 | 2.73 | 1.33 | 44.8 | < 1 | 52.4 | 62.8 | 3.71 | 4.11 | 13.7 | 12.7 | 2.39 | 0.414 | 5.56 | 0.663 | > 5 | < 1
Cc1cc([C@@H](C)Nc2ccc(Cl)nc2C(=O)O)c2nc(-c3ccc(F)cn3)n(C)c(=O)c2c1 [Compound 66, (R)-6-chloro-3-((1-(2-(5-fluoropyridin-2-yl)-3,6-dimethyl-4-oxo-3,4-dihydroquinazolin-8-yl)ethyl)amino)pyridinecarboxylic Acid] | 4.04 | 18 | 1.39 | 0.654 | 3.44 | 2.2 | 89.0 | < 1 | 74.5 | 49.1 | 4.91 | 3.81 | 11 | 7.7 | 2.21 | 0.466 | 3.34 | 0.879 | > 5 | < 1
